From ChEMBL document CHEMBL1138634, “Topological modeling of lipophilicity, diuretic activity, and carbonic inhibition activity of benzene sulfonamides: a molecular connectivity approach” (Bioorg Med Chem Lett, 2004) come the findings set out here.

Series [1] is described as follows: Inhibitory activity against carbonic anhydrase.
Series [2] can be described thus: Diuretic activity was determined. The class given is ADME, Urine.

In the case of `COc1ccc(S(N)(=O)=O)cc1`, the “Log Ki” value in series [1] is -5.34.

For `Cc1ccc(S(N)(=O)=O)cc1` [P-TOLUENESULFONAMIDE], the “Log 1/C” value in series [2] is 0.18. For the same compound, the “Log Ki” value in series [1] is given as -5.42. As to `NS(=O)(=O)c1ccc(Br)cc1`, in series [2], the “Log 1/C” value is recorded as 0.26. For the same compound, in series [1], the “Log Ki” value is on record as -5.92. The like results for `NS(=O)(=O)c1ccc(Cl)c([N+](=O)[O-])c1` were, in that order, 0.32 and -6.76. The like results for `NS(=O)(=O)c1cccc([N+](=O)[O-])c1` were, in that order, 0.67 and -5.88.

Take `CC(=O)c1ccc(S(N)(=O)=O)cc1`: the “Log 1/C” value in series [2] is given as 0.39. Further, the “Log Ki” value in series [1] was -5.95.

Consider `N#Cc1ccc(S(N)(=O)=O)cc1`, for which the “Log 1/C” value in series [2] worked out at 1. Further, the “Log Ki” value in series [1] was -5.95. For `NS(=O)(=O)c1ccccc1[N+](=O)[O-]`, in series [2], the “Log 1/C” value was -0.3. Besides, the “Log Ki” value in series [1] is recorded as -5.07.

Take `CNc1ccc(S(N)(=O)=O)cc1`: the “Log 1/C” value in series [2] is -0.03. In series [1], the “Log Ki” value is -4.87. The like results for `NS(=O)(=O)c1ccc([N+](=O)[O-])c(C(F)(F)F)c1` were, in that order, 0.57 and -6.85. The corresponding values for `NS(=O)(=O)c1ccccc1` [BENZENESULFONAMIDE] are 0.13 and -5.21. As for `Nc1ccc(S(N)(=O)=O)cc1` [SULFANILAMIDE], the “Log 1/C” value in series [2] was -0.3. As for `NS(=O)(=O)c1ccc(Cl)cc1` [P-CHLOROBENZENESULFONAMIDE], the “Log Ki” value in series [1] is -5.72. In the case of `NS(=O)(=O)c1cccc(Cl)c1`, the “Log 1/C” value in series [2] is on record as 0.29. Also, in series [1], the “Log Ki” value is on record as -5.63. Take `Cc1cccc(S(N)(=O)=O)c1`: the “Log 1/C” value in series [2] is given as 0.17. Also, the “Log Ki” value in series [1] is listed as -5.3.

In the case of `NS(=O)(=O)c1ccc(Cl)c(Cl)c1`, in series [2], the “Log 1/C” value stood at 0.24. Moreover, in series [1], the “Log Ki” value is given as -6.39. The like results for `Cc1ccccc1S(N)(=O)=O` were, in that order, -0.3 and -4.79. The corresponding values for `NS(=O)(=O)c1ccccc1Cl` are -0.3 and -5.52.
